Experimental data: patent US8765693B2, “Method of inhibiting premature aging of human skin caused by exposure to infrared radiation” (L'Oreal, priority 2012, dated 2014)

Tested on: IRA induced MMP-1
Assay: IRA-induced MMP-1 mRNA expression in primary human dermal fibroblasts
Type: cell-based
Settings: for Effects in IRA treated cells: inhibition (MMP-1 mRNA): 24 hrs pre-incubation, 360 J/cm^2 Infrared A, harvested 24 hrs after irradiation; for Effect on IRA induced MMP-1 in vitro (in words): primary human dermal fibroblasts
Procedure: Primary Human Dermal Fibroblasts
Hydrosun 500H IRA device (Hydrosun Medizintechnik GmbH, Müllheim, Germany). The IRA device was water-filtered and equipped with a black filter and emits wavelengths between 760 and 1400 nm leading to an irradiance of 360 mW/cm^2.
Baicalin: stock 44.8 mM in DMSO, and diluted to 10 μM, 25 μM
Phloretin: stock 50 mM in DMSO, and diluted to 1 μM, 5 μM, and 10 μM as final treatment conditions.
Neohesperidin dihydrochalcone: stock 710 mM in DMSO, and diluted to 100 μM, 500 μM, and 1 mM as final treatment conditions.
Cells were incubated for 24 hrs after irradiation, and then harvested to have MMP-1 mRNA analyzed.

O=C(O)[C@H]1O[C@@H](Oc2cc3oc(-c4ccccc4)cc(=O)c3c(O)c2O)[C@H](O)[C@@H](O)[C@@H]1O [Baicalin]
Effects in IRA treated cells: inhibition (MMP-1 mRNA) (10 μM): 26% inhibition with 10 μM
Effects in IRA treated cells: inhibition (MMP-1 mRNA) (25 μM (0.001%)): 100% inhibition with 25 μM+ (0.001%)
Effect on IRA induced MMP-1 in vitro (in words): reduced IRA induced MMP-1

O=C(CCc1ccc(O)cc1)c1c(O)cc(O)cc1O [Phloretin]
Effects in IRA treated cells: inhibition (MMP-1 mRNA) (1 μM (0.00002%)): 22% inhibition with 1 μM+ (0.00002%)
Effects in IRA treated cells: inhibition (MMP-1 mRNA) (5 μM (0.00014%)): 78% inhibition with 5 μM+ (0.00014%)
Effects in IRA treated cells: inhibition (MMP-1 mRNA) (10 μM): 68% inhibition with 10 μM+ (0.0028%)
Effect on IRA induced MMP-1 in vitro (in words): reduced IRA induced MMP-1

COc1ccc(CCC(=O)c2c(O)cc(O[C@@H]3O[C@H](CO)[C@@H](O)[C@H](O)[C@H]3O[C@@H]3O[C@@H](C)[C@H](O)[C@@H](O)[C@H]3O)cc2O)cc1O [Neohesperidin dihydrochalcone]
Effects in IRA treated cells: inhibition (MMP-1 mRNA) (100 μM (0.006%)): 100% inhibition with 100 μM+ (0.006%)
Effects in IRA treated cells: inhibition (MMP-1 mRNA) (500 μM (0.03%)): 100% inhibition with 500 μM+ (0.03%)
Effects in IRA treated cells: inhibition (MMP-1 mRNA) (1 mM (0.06%)): 100% inhibition with 1 mM+ (0.06%)
Effect on IRA induced MMP-1 in vitro (in words): reduced IRA induced MMP-1
